# Experimental data published in patent US9617343B2, “Methods and compositions for treating lupus” (GENZYME CORPORATION, priority 2009, dated 2017).
# Tests used:
# Type in all cases: in vivo, mouse
# NZB/NZWF1 mice [1] = experiment: Levels of proteinuria (colorimetric total urine protein assay); conditions: by the end of the study (43 weeks), antibodies two i.p. injections ~3 mg/kg, cyclophosphamide 50 mg/kg weekly
# NZB/NZWF1 mice [2] = experiment: Titers of serum IgG antibodies to dsDNA by ELISA; conditions: antibody two i.p. injections ~3 mg/kg, cyclophosphamide 50 mg/kg weekly
# NZB/NZWF1 mice [3] = conditions: antibodies two doses ~3 mg/kg i.p., cyclophosphamide 50 mg/kg weekly injections, to 43 weeks of age
# NZB/NZWF1 mice [4] = experiment: Histological examination of kidneys; conditions: trend, not statistically significant
# NZB/NZWF1 mice [5] = experiment: Kidney section staining for CD4+, CD8+ and FoxP3+ cells; conditions: kidney sections of NZB/NZWF1 mice scored blindly on a scale of 0-4
compound,measurement,setting,value
"O=P1(N(CCCl)CCCl)NCCCO1 (centres unmarked) [cyclophosphamide, Cyclophosphamide]",mice that reached severe proteinuria (>500 mg/dL/day),NZB/NZWF1 mice [1],20%
same,effect on development of autoantibodies against dsDNA (serum IgG titers),NZB/NZWF1 mice [2],effectively reduced
same,survival,NZB/NZWF1 mice [3],80%
same,median glomerulopathy scores,NZB/NZWF1 mice [4]; compared to rat IgG and vehicle control groups,reduced
same,interstitial inflammation,NZB/NZWF1 mice [4],Reduced
same,CD4+ cells infiltrating the kidneys,NZB/NZWF1 mice [5],significant decrease
same,CD8+ cells infiltrating the kidneys,NZB/NZWF1 mice [5],significant decrease
same,FoxP3+ cells infiltrating the kidneys,NZB/NZWF1 mice [5],significant decrease
